Results: US20120101093A1, “SUBSTITUTED IMIDAZO[1,2-A]PYRIDINE DERIVATIVES, PHARMACEUTICAL COMPOSITIONS, AND METHODS OF USE AS BETA-SECRETASE INHIBITORS” (HIGH POINT PHARMACEUTICALS, LLC, priority 2009, published 2012)

Columns and labels:
[1] = tested on: Aβ1-40 secreted from HEK293 cells stably expressing wildtype human APP695 protein (HEK-APPwt cells); assay: Aβ Cell Based Assay (Aβ1-40 secretion, ELISA); conditions: Homo sapiens, HEK293, 6 h, 6 hours incubation, reduction of Aβ1-40 secretion
Outline: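 Cells in DMEM with 2% FBS exposed to ten compound concentrations for 6 h at 37 °C. Secreted Aβ1-40 in supernatant quantified by sandwich ELISA (82E1 capture, TMB, OD450). EC50 from percent inhibition, DAPT defining 100% inhibition, non-linear fit.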

[2] = biological target: T1, BACE-1 enzyme (Homo sapiens, UniProt P56817); assay: BACE Fluorescence Resonance Energy Transfer (FRET) Assay; format: biochemical; conditions: pH 4-4.5, 30 min pre-incubation, about 1.5 hours reaction
T1 construct: purchased R & D Systems 931AS
Outline: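 Fluorescence (ex 540, em 585 nm) after ~1.5 h room-temperature cleavage of a quenched rhodamine peptide tracks BACE-1 activity. Enzyme and compound first sit 30 min in pH 4-4.5 acetate buffer with CHAPS, Triton X-100, EDTA, 7.5% DMSO. Values given as IC50 or % inhibition.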

T1 sequence (P56817 46-457 limits assumed): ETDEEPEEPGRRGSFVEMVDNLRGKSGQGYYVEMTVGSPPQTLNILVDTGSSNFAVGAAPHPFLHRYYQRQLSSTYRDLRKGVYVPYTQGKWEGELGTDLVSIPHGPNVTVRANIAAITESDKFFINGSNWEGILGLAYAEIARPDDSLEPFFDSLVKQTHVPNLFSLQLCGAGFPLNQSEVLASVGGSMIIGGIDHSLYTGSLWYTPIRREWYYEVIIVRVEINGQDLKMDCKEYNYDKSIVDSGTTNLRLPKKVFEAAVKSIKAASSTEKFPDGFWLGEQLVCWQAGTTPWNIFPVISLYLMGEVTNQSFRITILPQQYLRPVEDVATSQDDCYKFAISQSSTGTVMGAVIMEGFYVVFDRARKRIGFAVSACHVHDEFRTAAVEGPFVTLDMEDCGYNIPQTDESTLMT

Structure (SMILES)	EC50 [1] [µM]	IC50 [2] [µM]
CNCc1cccn2cc(C(=O)Nc3nc4cc(-c5cccc(C(F)(F)F)c5)ccc4[nH]3)nc12 [Example 196, 8-Methylaminomethyl-imidazo[1,2-a]pyridine-2-carboxylic acid [5-(3-trifluoromethyl-phenyl)-1H-benzoimidazol-2-yl]-amide]	5.96	0.45
CNCc1cccc2nc(C(=O)Nc3nc4cc(-c5cccc(C(F)(F)F)c5)ccc4[nH]3)cn12 [Example 170, 5-Methylaminomethyl-imidazo[1,2-a]pyridine-2-carboxylic acid [5-(3-trifluoromethyl-phenyl)-1H-benzoimidazol-2-yl]-amide]	2.48	0.47
O=C(Nc1nc2cc(-c3cccc(C(F)(F)F)c3)ccc2[nH]1)c1cn2c(N3CCOCC3)cccc2n1 [Example 123, 5-Morpholin-4-yl-imidazo[1,2-a]pyridine-2-carboxylic acid [5-(3-trifluoromethyl-phenyl)-1H-benzoimidazol-2-yl]-amide]	1.11	2.11
O=C(Nc1nc2cc(-c3cccc(C(F)(F)F)c3)ccc2[nH]1)c1cn2ccc(CN3CCOCC3)cc2n1 [Example 201, 7-Morpholin-4-ylmethyl-imidazo[1,2-a]pyridine-2-carboxylic acid [5-(3-trifluoromethyl-phenyl)-1H-benzoimidazol-2-yl]-amide]	0.87	0.97
COCCCNCc1cccc2nc(C(=O)Nc3nc4cc(-c5cccc(C(F)(F)F)c5)ccc4[nH]3)cn12 [Example 174, 5-[(3-Methoxy-propylamino)-methyl]-imidazo[1,2-a]pyridine-2-carboxylic acid [5-(3-trifluoromethyl-phenyl)-1H-benzoimidazol-2-yl]-amide]	4.4	0.93
Cc1cccc2nc(C(=O)Nc3nc4ccc(-c5cc(F)cc(Cl)c5)cc4[nH]3)cn12 [Example 56, 5-Methyl-imidazo[1,2-a]pyridine-2-carboxylic acid [6-(3-chloro-5-fluoro-phenyl)-1H-benzoimidazol-2-yl]-amide]	0.24	0.28
CCOc1cccc(-c2ccc3[nH]c(NC(=O)c4cn5c(C)cccc5n4)nc3c2)c1 [Example 35, 5-Methyl-imidazo[1,2-a]pyridine-2-carboxylic acid [5-(3-ethoxy-phenyl)-1H-benzoimidazol-2-yl]-amide]	2.3	0.82
Cc1cccc2nc(C(=O)Nc3nc4ccc(-c5cccc(C(F)(F)F)c5)cc4n3C)cn12 [Example 11, 5-Methyl-imidazo[1,2-a]pyridine-2-carboxylic acid [1-methyl-6-(3-trifluoromethyl-phenyl)-1H-benzoimidazol-2-yl]-amide]	8.83	0.55
COc1cc(F)cn2cc(C(=O)Nc3nc4cc(-c5cc(F)cc(Cl)c5)ccc4[nH]3)nc12 [Example 126, 6-Fluoro-8-methoxy-imidazo[1,2-a]pyridine-2-carboxylic acid [5-(3-chloro-5-fluoro-phenyl)-1H-benzoimidazol-2-yl]-amide]	1.58	0.22
CN(C)c1cccc2nc(C(=O)Nc3nc4cc(-c5cccc(C(F)(F)F)c5)ccc4[nH]3)cn12 [Example 121, 5-Dimethylamino-imidazo[1,2-a]pyridine-2-carboxylic acid [5-(3-trifluoromethyl-phenyl)-1H-benzoimidazol-2-yl]-amide]	0.37	0.67
CN1CCC(c2cccc3nc(C(=O)Nc4nc5cc(-c6cccc(C(F)(F)F)c6)ccc5[nH]4)cn23)CC1 [Example 219, 5-(1-methylpiperidin-4-yl)-N-{5-[3-(trifluoromethyl)phenyl]-1H-benzimidazol-2-yl}imidazo[1,2-a]pyridine-2-carboxamide]	7.48	0.9
Cc1cccc2nc(C(=O)Nc3nc4cc(CCc5ccc(C(F)(F)F)cc5)ccc4[nH]3)cn12 [Example 62, 5-Methyl-imidazo[1,2-a]pyridine-2-carboxylic acid {5-[2-(4-trifluoromethyl-phenyl)-ethyl]-1H-benzoimidazol-2-yl}-amide]	0.87	0.4
CN(C)C(=O)c1cccc2nc(C(=O)Nc3nc4cc(-c5cc(F)cc(Cl)c5)ccc4[nH]3)cn12 [Example 227, Imidazo[1,2-a]pyridine-2,5-dicarboxylic acid 2-{[5-(3-chloro-5-fluoro-phenyl)-1H-benzoimidazol-2-yl]-amide} 5-dimethylamide]	1.65	0.31
